# Measurements published in patent US20240382629A1, “HETEROBIVALENT AND HOMOBIVALENT AGENTS TARGETING FIBROBLAST ACTIVATION PROTEIN ALPHA AND/OR PROSTATE-SPECIFIC MEMBRANE ANTIGEN” (The Johns Hopkins University, priority 2021, published 2024).
# “And” between values parts separate entries of the source, which are not always exact repeats. Equal entries are not always repeated.
# Assay: Biodistribution of representative compounds (Example 13), % ID/g in tissues of tumor-bearing mice
# Format: in vivo, mouse
# [1] = 30 min, 20 μCi per mouse (SA 6500 mCi/μmol)
# [2] = 60 min + Blocker cold FAPI-04 (10 nmole, 6500-fold)
# [3] = 60 min, 20 μCi per mouse (SA 6500 mCi/μmol)
compound,measurement,setting,value
N#C[C@@H]1CCCN1C(=O)CNC(=O)c1ccnc2ccc(OCCCNC(=O)[C@@H](CC(=O)O)NC(=O)[C@@H](CC(=O)O)NC(=O)c3ccc([18F])nc3)cc12 [[^18F]JHU1221785],% ID/g Bladder (individual mouse),[1],0.93 % ID/g and 4.69 % ID/g
same,% ID/g Blood (individual mouse),[1],5.98 % ID/g and 3.90 % ID/g
same,% ID/g Brain (individual mouse),[1],0.14 % ID/g and 0.15 % ID/g
same,% ID/g Fat (individual mouse),[1],0.21 % ID/g and 0.19 % ID/g
same,% ID/g Femur (individual mouse),[1],2.78 % ID/g and 2.44 % ID/g
same,% ID/g Heart (individual mouse),[1],2.51 % ID/g and 2.01 % ID/g
same,% ID/g Kidney (individual mouse),[1],1.60 % ID/g and 3.33 % ID/g
same,% ID/g Large intestine (individual mouse),[1],0.58 % ID/g and 0.86 % ID/g
same,% ID/g Liver (individual mouse),[1],6.56 % ID/g and 8.08 % ID/g
same,% ID/g Lung (individual mouse),[1],2.77 % ID/g and 2.53 % ID/g
same,% ID/g Mean Bladder,[1],2.81 % ID/g
same,% ID/g Mean Blood,[1],4.94 % ID/g
same,% ID/g Mean Brain,[1],0.14 % ID/g
same,% ID/g Mean Fat,[1],0.20 % ID/g
same,% ID/g Mean Femur,[1],2.61 % ID/g
same,% ID/g Mean Heart,[1],2.26 % ID/g
same,% ID/g Mean Kidney,[1],2.47 % ID/g
same,% ID/g Mean Large intestine,[1],0.72 % ID/g
same,% ID/g Mean Liver,[1],7.32 % ID/g
same,% ID/g Mean Lung,[1],2.65 % ID/g
same,% ID/g Mean Muscle,[1],0.96 % ID/g
same,% ID/g Mean Pancreas,[1],2.31 % ID/g
same,% ID/g Mean Salivary gland,[1],2.93 % ID/g
same,% ID/g Mean Small intestine,[1],2.49 % ID/g
same,% ID/g Mean Spleen,[1],1.00 % ID/g
same,% ID/g Mean Stomach,[1],0.82 % ID/g
same,% ID/g Mean Tumor,[1],1.24 % ID/g
same,% ID/g Muscle (individual mouse),[1],0.81 % ID/g and 1.12 % ID/g
same,% ID/g Pancreas (individual mouse),[1],1.92 % ID/g and 2.71 % ID/g
same,% ID/g Salivery gland (individual mouse),[1],2.81 % ID/g and 3.05 % ID/g
same,% ID/g Small intestine (individual mouse),[1],2.60 % ID/g and 2.38 % ID/g
same,% ID/g Spleen (individual mouse),[1],1.03 % ID/g and 0.97 % ID/g
same,% ID/g Stomach (individual mouse),[1],0.72 % ID/g and 0.92 % ID/g
same,% ID/g Tumor (individual mouse),[1],1.14 % ID/g
same,% ID/g Bladder (individual mouse),[2],0.23 % ID/g and 0.67 % ID/g
same,% ID/g Blood (individual mouse),[2],0.11 % ID/g and 9.26 % ID/g
same,% ID/g Brain (individual mouse),[2],0.02 % ID/g and 0.04 % ID/g
same,% ID/g Fat (individual mouse),[2],0.03 % ID/g and 0.21 % ID/g
same,% ID/g Femur (individual mouse),[2],1.52 % ID/g and 1.50 % ID/g
same,% ID/g Heart (individual mouse),[2],0.06 % ID/g and 0.07 % ID/g
same,% ID/g Kidney (individual mouse),[2],0.41 % ID/g and 0.51 % ID/g
same,% ID/g Large intestine (individual mouse),[2],0.08 % ID/g and 0.33 % ID/g
same,% ID/g Liver (individual mouse),[2],9.42 % ID/g and 10.36 % ID/g
same,% ID/g Lung (individual mouse),[2],0.13 % ID/g and 0.20 % ID/g
same,% ID/g Mean Bladder,[2],0.43 % ID/g
same,% ID/g Mean Blood,[2],4.68 % ID/g
same,% ID/g Mean Brain,[2],0.03 % ID/g
same,% ID/g Mean Fat,[2],0.12 % ID/g
same,% ID/g Mean Femur,[2],1.51 % ID/g
same,% ID/g Mean Heart,[2],0.07 % ID/g
same,% ID/g Mean Kidney,[2],0.46 % ID/g
same,% ID/g Mean Large intestine,[2],0.20 % ID/g
same,% ID/g Mean Liver,[2],9.69 % ID/g
same,% ID/g Mean Lung,[2],0.17 % ID/g
same,% ID/g Mean Muscle,[2],0.06 % ID/g
same,% ID/g Mean Pancreas,[2],0.13 % ID/g
same,% ID/g Mean Salivary gland,[2],0.05 % ID/g
same,% ID/g Mean Small intestine,[2],3.54 % ID/g
same,% ID/g Mean Spleen,[2],0.16 % ID/g
same,% ID/g Mean Stomach,[2],0.16 % ID/g
same,% ID/g Mean Tumor,[2],0.10 % ID/g
same,% ID/g Muscle (individual mouse),[2],0.04 % ID/g and 0.07 % ID/g
same,% ID/g Pancreas (individual mouse),[2],0.05 % ID/g and 0.22 % ID/g
same,% ID/g Salivery gland (individual mouse),[2],0.04 % ID/g and 0.06 % ID/g
same,% ID/g Small intestine (individual mouse),[2],0.88 % ID/g and 6.19 % ID/g
same,% ID/g Spleen (individual mouse),[2],0.08 % ID/g and 0.25 % ID/g
same,% ID/g Stomach (individual mouse),[2],0.09 % ID/g and 0.23 % ID/g
same,% ID/g Tumor (individual mouse),[2],0.08 % ID/g and 0.11 % ID/g
same,% ID/g Bladder (individual mouse),[3],0.76 % ID/g and 0.92 % ID/g
same,% ID/g Blood (individual mouse),[3],2.56 % ID/g and 4.57 % ID/g
same,% ID/g Brain (individual mouse),[3],0.09 % ID/g and 0.12 % ID/g
same,% ID/g Fat (individual mouse),[3],0.22 % ID/g and 0.12 % ID/g
same,% ID/g Femur (individual mouse),[3],2.06 % ID/g and 2.07 % ID/g
same,% ID/g Heart (individual mouse),[3],1.38 % ID/g and 1.73 % ID/g
same,% ID/g Kidney (individual mouse),[3],0.79 % ID/g and 1.04 % ID/g
same,% ID/g Large intestine (individual mouse),[3],0.61 % ID/g and 0.78 % ID/g
same,% ID/g Liver (individual mouse),[3],7.41 % ID/g and 8.27 % ID/g
same,% ID/g Lung (individual mouse),[3],1.70 % ID/g and 2.65 % ID/g
same,% ID/g Mean Bladder,[3],0.84 % ID/g
same,% ID/g Mean Blood,[3],3.57 % ID/g
same,% ID/g Mean Brain,[3],0.10 % ID/g
same,% ID/g Mean Fat,[3],0.22 % ID/g
same,% ID/g Mean Femur,[3],2.07 % ID/g
same,% ID/g Mean Heart,[3],1.56 % ID/g
same,% ID/g Mean Kidney,[3],0.91 % ID/g
same,% ID/g Mean Large intestine,[3],0.69 % ID/g
same,% ID/g Mean Liver,[3],7.84 % ID/g
same,% ID/g Mean Lung,[3],2.18 % ID/g
same,% ID/g Mean Muscle,[3],0.98 % ID/g
same,% ID/g Mean Pancreas,[3],2.07 % ID/g
same,% ID/g Mean Salivary gland,[3],3.45 % ID/g
same,% ID/g Mean Small intestine,[3],1.83 % ID/g
same,% ID/g Mean Spleen,[3],0.93 % ID/g
same,% ID/g Mean Stomach,[3],0.71 % ID/g
same,% ID/g Mean Tumor,[3],2.23 % ID/g
same,% ID/g Muscle (individual mouse),[3],1.03 % ID/g and 0.69 % ID/g
same,% ID/g Pancreas (individual mouse),[3],1.96 % ID/g and 2.17 % ID/g
same,% ID/g Salivery gland (individual mouse),[3],2.17 % ID/g and 4.73 % ID/g
same,% ID/g Small intestine (individual mouse),[3],1.65 % ID/g and 2.01 % ID/g
same,% ID/g Spleen (individual mouse),[3],0.78 % ID/g and 1.09 % ID/g
same,% ID/g Stomach (individual mouse),[3],0.60 % ID/g and 0.81 % ID/g
same,% ID/g Tumor (individual mouse),[3],2.99 % ID/g and 1.47 % ID/g
